Results on three compounds are retold here after EP0405998A1, “Antibiotic agents” (priority 1989, dated 1991).

≈ marks a conversion by molar mass, not a printed value. Read-outs that look alike come from different tables or passages of the source.

The test system of series [1] is Pneumocystis carinii. Kind of series: Pneumocystis carinii infection in immunosuppressed mice, lung cyst count. The series is classed as in vivo, C3H/He mice. The settings on record: 2.0 mg/kg intraperitoneally twice daily, lung tissue. As for the experimental part:
In a representative study on the effectiveness of Compound IB, ten male C3H/He mice, weighing 22-24 gms. each, were immunosuppressed by the addition of dexamethasone to the drinking water (8.0 mg/L) for six weeks to induce the development of P. carinii infections. To enhance the infection the mice were also maintained on a low protein diet. At the beginning of the seventh week the mice were divided into two groups. Both groups continued to receive dexamethasone in the drinking water and low protein diet for the remainder of the study. Mice in Group I were injected intraperitoneally twice daily with 0.5 ml of a 10% dimethylsulfoxide (DMSO) solution as a vehicle control. Mice in Group II were injected intraperitoneally twice daily with 0.5 ml of sterile water containing 0.05 mg of compound IB (dissolved in DMSO, final concentration of DMSO is 10%, actual dose was 2.0 mg/kg). […]
At the end of the treatment period (a total of eight weeks immunosuppression) the animals were sacrificed and the lung tissue removed. The tissue was then processed to determine the number of cysts for each animal. Compound IB reduced the number of cysts by 84% as compared to the control animals. […]

Series [2] has as its system Candida tropicalis. As to the kind of experiment: microbroth dilution assay, minimum fungicidal concentration (MFC). It is filed as cell-based. The settings on record: read-out: Minimum Fungicidal Concentration. How it is done:
(§1) The activity may be seen in a microbroth dilution assay employing as medium a Yeast Nitrogen Base (Difco) with 1% dextrose (YNBD) as the medium. In carrying out the assay, Compound IB, IC-1 and IC-2 were solubilized in 10 percent dimethyl sulfoxide (DMSO) and diluted to 2560 µg/ml. The compounds were then diluted to 256 µg/ml in YNBD. 0.15 ml of the suspension was dispensed to the top row of a 96-well plate (each well containing 0.15 ml of YNDB) resulting in a drug concentration of 128 µg/ml. Two-fold dilutions were then made from the top row to obtain final drug concentrations ranging from 128 to 0.06 µg/ml.
(§2) The yeast cultures, maintained on Sabouraud dextrose agar were transferred to YM broth (Difco) and incubated overnight at 35°C with shaking (250 rpm). After incubation, each culture was diluted in sterile water to yield a final concentration of 1-5 x 10⁶ colony forming units (CFU)/ml.
(§3) 96-well microplates were inoculated using a MIC-2000 (Dynatech) which delivers 1.5 µl per well yielding a final inoculum per well of 1.5-7.5 x 10³ cells. The microplates were incubated at 35°C for 24 hours. The minimum inhibitory concentrations (MICs) were recorded as the lowest concentrations of drug showing no visible growth.
(§4) After recording the MIC, the plates were shaken to resuspend the cells. Thereafter, […] samples from the wells in the 96-well microplate were transferred to a single well tray containing Sabouraud dextrose agar. The inoculated trays were incubated 24 hours at 28°C and then read. The MFC is defined as the lowest concentration of drug showing no growth or less than 4 colonies per spot.

Series [3] concerns Candida parapsilosis. Described as above. The series is classed as cell-based. The settings on record: Lodderomyces parapsilosis, YNBD medium. How it is done:
as §1, §2, §3, §4

The test system of series [4] is Candida albicans. Described as above. It is filed as cell-based. How it is done:
as §1, §2, §3, §4

Series [5] concerns red blood cells. As to the kind of experiment: titration/hemolysis assay, red blood cell lysis. The series is classed as cell-based, CD-1 female mice. The settings on record: highest drug concentration that did not lyse the red blood cells; 25°C, two hours; 5 percent dextrose. How it is done: Compound I or a component thereof has potential as a replacement for a known antifungal agent which while effective as an antifungal agent is of limited utility for having lytic effect on red blood cells at low dose levels. This property was discovered in a standard titration/hemolysis assay using fresh blood drawn from CD-1 female mice. In a representative assay, a concentration of Compound IB in the range of from 0.39 to 400 µg/ml in 5 percent dextrose and a drug free control were employed.
In carrying out the determination, the assay tubes prepared by mixing together 2 milliliters of appropriate drug dilution and 0.5 milliliter of red blood cell suspension were gently shaken to mix the contents and then the tubes were incubated at 25°C for two hours. At the end of this time, the tubes were examined visually for complete or partial red blood cell hemolysis and compared to a drug free control. […] The MLC for Compound IB was greater than 400 µg/ml.

Regarding “1-[N²-(10,12-dimethyl-1-oxotetradecyl)ornithine]-4-[4-(4-hydroxyphenyl)-2-aminobutanoic acid]-5-(3-hydroxyglutamine)echinocandin B [Compound IC]”, the “reduced the number of cysts as compared to the control animals” value in series [1] (treatment period one week) turned out to be 66%.
Turning to `CCC(C)CC(C)CCCCCCCCC(=O)NC1CCC(O)NC(=O)C2C(O)C(C)CN2C(=O)C(C(O)CC(N)=O)NC(=O)C(CCc2ccc(O)cc2)NC(=O)C2CC(O)CN2C(=O)C(C(C)O)NC1=O` (stereo not shown) [Compound IB, 1-[5-hydroxy N²-(10, 12-dimethyl-1-oxotetra-decyl)-ornithine]-4-[4-(4-hydroxyphenyl)-2-amino-butanoic acid]-5-(3-hydroxyglutamine) echinocandin B], the MFC came out at 2 µg/mL (≈ 1.94 µM) in series [2]; 16 µg/mL (≈ 15.5 µM) in series [3] (read-out: Minimum Fungicidal Concentration, Candida parapsilosis MY 1009); 8 µg/mL (≈ 7.76 µM) in series [3] (read-out: Minimum Fungicidal Concentration, Candida parapsilosis MY 1010); 1 µg/mL (≈ 0.97 µM) in series [4] (read-out: Minimum Fungicidal Concentration, Candida albicans MY 1028, YNBD medium); 0.5 µg/mL (≈ 0.485 µM) in series [4] (read-out: Minimum Fungicidal Concentration, Candida albicans MY 1055, YNBD medium); 2 µg/mL (≈ 1.94 µM) in series [4] (read-out: Minimum Fungicidal Concentration, Candida albicans MY 1208, YNBD medium). The MFC is 1 µg/mL (≈ 0.97 µM) in series [4] (read-out: Minimum Fungicidal Concentration, Candida albicans MY 1585, YNBD medium); 1 µg/mL (≈ 0.97 µM) in series [4] (read-out: Minimum Fungicidal Concentration, Candida albicans MY 1750, YNBD medium); 2 µg/mL (≈ 1.94 µM) in series [4] (read-out: Minimum Fungicidal Concentration, Candida albicans MY 1783, YNBD medium). The “reduced the number of cysts as compared to the control animals” value in series [1] (treatment period two weeks) is recorded as 84%. For the same compound, the “minimum lytic concentration (MLC)” value in series [5] is “greater than 400 µg/ml”.
For the compound `C[C@@H]1[C@H](O)[C@@H](C)/C=C/C=C/C=C/C=C/C=C/C=C/C=C/[C@H](O[C@@H]2O[C@H](C)[C@@H](O)[C@H](N)[C@@H]2O)C[C@@H]2O[C@](O)(C[C@@H](O)C[C@@H](O)[C@H](O)CC[C@@H](O)C[C@@H](O)CC(=O)O[C@H]1C)C[C@H](O)[C@H]2C(=O)O` [amphotericin B, reference compound], the “minimum lytic concentration (MLC)” value in series [5] is 12.5 µg/mL.
